Results published in PubChem BioAssay AID1963963 (Molecular Pharmacology Branch, DTP, NCI, 2024).
Values joined by “and” are separate entries in the source; they are usually repeats but may differ in a detail not shown here. Equal entries are not always repeated. One block for each compound: values may come before it.

Test system: 958667-338-R-J2-PDC tumor spheroids viability
Test: Anticancer human tumor 958667-338-R-J2-PDC patient-derived colon adenocarcinoma cell line growth inhibition [PI3K]
Conditions: spheroids with HUVEC and MSC; for viability, T/C: stronger effect = lower value
Summary of the method: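 Stroma-containing spheroids: tumor line, pooled-donor HUVEC, hMSC. Treatments: targeted agents with PI3K inhibitors. Dosing: clinically relevant, half-log spacing, 10 microM ceiling without known Cmax. Read-out: cell viability.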

[1] = curve of first compound, second compound 0.00316 µM
[2] = curve of first compound, second compound 0.01 µM
[3] = curve of first compound, second compound 0.0316 µM
[4] = curve of first compound, second compound 0.1 µM
[5] = curve of first compound, second compound 0.316 µM
[6] = curve of first compound, second compound 1 µM
[7] = second compound 0.00316 µM, first compound 0.0316 µM
[8] = second compound 0.00316 µM, first compound 0.1 µM
[9] = second compound 0.01 µM, first compound 0.0316 µM
[10] = second compound 0.01 µM, first compound 0.1 µM
[11] = second compound 0.0316 µM, first compound 0.0316 µM
[12] = second compound 0.0316 µM, first compound 0.1 µM
[13] = second compound 0.1 µM, first compound 0.0316 µM
[14] = second compound 0.1 µM, first compound 0.1 µM
[15] = second compound 0.316 µM, first compound 0.0316 µM
[16] = second compound 0.316 µM, first compound 0.1 µM
[17] = second compound 1 µM, first compound 0.0316 µM
[18] = second compound 1 µM, first compound 0.1 µM
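Further: spheroids exposed to compounds for seven days before readout.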

IC50 [1]: > 100 nM
IC50 [2]: > 100 nM
IC50 [3]: > 100 nM
IC50 [4]: > 100 nM
IC50 [5]: > 100 nM
IC50 [6]: > 100 nM
SMILES: Cn1ncnc1[C@H]1c2n[nH]c(=O)c3cc(F)cc(c23)N[C@@H]1c1ccc(F)cc1 + CC(Nc1ccc2c(c1)OCCn1cc(N3C(=O)OCC3C(F)F)nc1-2)C(N)=O
viability, T/C (second compound 0.00316 µM, first compound 0.000316 µM): 111%
viability, T/C (second compound 0.00316 µM, first compound 0.001 µM): 107%
viability, T/C (second compound 0.00316 µM, first compound 0.00316 µM): 105%
viability, T/C (second compound 0.00316 µM, first compound 0.01 µM): 101%
viability, T/C [7]: 112%
viability, T/C [8]: 95.9%
viability, T/C (second compound 0.01 µM, first compound 0.000316 µM): 93.8%
viability, T/C (second compound 0.01 µM, first compound 0.001 µM): 87.4%
viability, T/C (second compound 0.01 µM, first compound 0.00316 µM): 88.5%
viability, T/C (second compound 0.01 µM, first compound 0.01 µM): 117%
viability, T/C [9]: 85.7%
viability, T/C [10]: 114%
viability, T/C (second compound 0.0316 µM, first compound 0.000316 µM): 82.8%
viability, T/C (second compound 0.0316 µM, first compound 0.001 µM): 95.9%
viability, T/C (second compound 0.0316 µM, first compound 0.00316 µM): 77.7%
viability, T/C (second compound 0.0316 µM, first compound 0.01 µM): 89.3%
viability, T/C [11]: 95.2%
viability, T/C [12]: 81.6%
viability, T/C (second compound 0.1 µM, first compound 0.000316 µM): 104%
viability, T/C (second compound 0.1 µM, first compound 0.001 µM): 82.4%
viability, T/C (second compound 0.1 µM, first compound 0.00316 µM): 82.4%
viability, T/C (second compound 0.1 µM, first compound 0.01 µM): 80.8%
viability, T/C [13]: 88.4%
viability, T/C [14]: 74.7%
viability, T/C (second compound 0.316 µM, first compound 0.000316 µM): 68.3%
viability, T/C (second compound 0.316 µM, first compound 0.001 µM): 65.2%
viability, T/C (second compound 0.316 µM, first compound 0.00316 µM): 75.5%
viability, T/C (second compound 0.316 µM, first compound 0.01 µM): 59.7%
viability, T/C [15]: 60.6%
viability, T/C [16]: 68.4%
viability, T/C (second compound 1 µM, first compound 0.000316 µM): 65.7%
viability, T/C (second compound 1 µM, first compound 0.001 µM): 50.8%
viability, T/C (second compound 1 µM, first compound 0.00316 µM): 61.6%
viability, T/C (second compound 1 µM, first compound 0.01 µM): 62.7%
viability, T/C [17]: 68.8%
viability, T/C [18]: 55.7%

IC50 (curve of compound): > 10000 nM
SMILES: CNC(=O)c1ccc(N2C(=S)N(c3ccc(C#N)c(C(F)(F)F)c3)C(=O)C2(C)C)cc1F
viability, T/C (compound 0.0316 µM): 110% [middle of 4 runs]
viability, T/C (compound 0.1 µM): 97% [middle of 4 runs]
viability, T/C (compound 1 µM): 112% and 103% (2×) and 100%
viability, T/C (compound 3.16 µM): 95.8% and 104% and 124% (2×)
viability, T/C (compound 10 µM): 103% (2×) and 115% and 88.7%

IC50 [1]: 3410 nM
IC50 [2]: 3240 nM
IC50 [3]: 1700 nM
IC50 [4]: 696 nM
IC50 [5]: < 31.6 nM
IC50 [6]: < 31.6 nM
SMILES: Cn1ncc(Cl)c1-c1cc(C(=O)NC(CN)Cc2cccc(F)c2)sc1Cl (stereo not given) + COc1c(OCCCN2CCOCC2)ccc2c3n(c(=NC(=O)c4cnc(N)nc4)nc12)CCN3
viability, T/C [7]: 89.1%
viability, T/C [8]: 109%
viability, T/C (second compound 0.00316 µM, first compound 0.316 µM): 75.5%
viability, T/C (second compound 0.00316 µM, first compound 1 µM): 76.2%
viability, T/C (second compound 0.00316 µM, first compound 3.16 µM): 46.4%
viability, T/C (second compound 0.00316 µM, first compound 10 µM): 43%
viability, T/C [9]: 88.9%
viability, T/C [10]: 76.7%
viability, T/C (second compound 0.01 µM, first compound 0.316 µM): 87.8%
viability, T/C (second compound 0.01 µM, first compound 1 µM): 75.5%
viability, T/C (second compound 0.01 µM, first compound 3.16 µM): 50.6%
viability, T/C (second compound 0.01 µM, first compound 10 µM): 32%
viability, T/C [11]: 90.3%
viability, T/C [12]: 74.6%
viability, T/C (second compound 0.0316 µM, first compound 0.316 µM): 76.2%
viability, T/C (second compound 0.0316 µM, first compound 1 µM): 58.6%
viability, T/C (second compound 0.0316 µM, first compound 3.16 µM): 38.9%
viability, T/C (second compound 0.0316 µM, first compound 10 µM): 26.5%
viability, T/C [13]: 59.4%
viability, T/C [14]: 65.7%
viability, T/C (second compound 0.1 µM, first compound 0.316 µM): 64.5%
viability, T/C (second compound 0.1 µM, first compound 1 µM): 43.5%
viability, T/C (second compound 0.1 µM, first compound 3.16 µM): 27.9%
viability, T/C (second compound 0.1 µM, first compound 10 µM): 21.1%
viability, T/C [15]: 44.9%
viability, T/C [16]: 38.8%
viability, T/C (second compound 0.316 µM, first compound 0.316 µM): 32.9%
viability, T/C (second compound 0.316 µM, first compound 1 µM): 31.6%
viability, T/C (second compound 0.316 µM, first compound 3.16 µM): 21.1%
viability, T/C (second compound 0.316 µM, first compound 10 µM): 14.1%
viability, T/C [17]: 20.8%
viability, T/C [18]: 18.2%
viability, T/C (second compound 1 µM, first compound 0.316 µM): 19.9%
viability, T/C (second compound 1 µM, first compound 1 µM): 20.5%
viability, T/C (second compound 1 µM, first compound 3.16 µM): 15.9%
viability, T/C (second compound 1 µM, first compound 10 µM): 12.5%
